Test results reported in ChEMBL document CHEMBL4000212, “New furoxan derivatives for the treatment of ocular hypertension” (Bioorg Med Chem Lett, 2017).

Legend:
[1] = Induction of NO release assessed as nitrite formation at 0.1 mM in phosphate buffer saline at pH 7.4 in absence of L-cysteine measured after 1 hr by Griess assay
[2] = Induction of NO release assessed as nitrite formation at 0.1 mM in phosphate buffer saline at pH 7.4 in presence of 0.5 mM L-cysteine measured after 1 hr by Griess assay
[3] = Induction of NO release assessed as nitrite formation at 0.1 mM in phosphate buffer saline at pH 7.4 in presence of 5 mM L-cysteine measured after 1 hr by Griess assay
[4] = Solubility of the compound in water at 5 mg incubated in magnetic stirrer for 1 hr; assay type: physicochemical
[5] = Solubility in pH 6 phosphate buffer /5% cremophor EL/0.3% DMSO/0.2 mg/ml bac solution at 10 mg incubated in magnetic stirrer for 1 hr; assay type: physicochemical; conditions: pH 6, 1 h
[6] = Ionization constant, pKa of the compound by potentiometric titration; assay type: physicochemical
[7] = n-Octanol-water distribution coefficient, log D of the compound at pH 7.4 after 20 mins by UV-spectrometric based shake-flask method; assay type: physicochemical
[8] = Ionization constant of the compound assessed as ionization level by potentiometric titration; assay type: physicochemical
Oryctolagus cuniculus [9] = test: Antiglaucoma activity in hypertonic saline-induced New Zealand white rabbit transient ocular hypertensive model assessed as IOP lowering efficacy at 30 uL administered topically immediately after hypertonic saline injection measured at 120 mins post dose; assay type: functional
Oryctolagus cuniculus [10] = test: Antiglaucoma activity in hypertonic saline-induced New Zealand white rabbit transient ocular hypertensive model assessed as IOP lowering efficacy at 30 uL administered topically immediately after hypertonic saline injection measured at 60 mins post dose; assay type: functional
Oryctolagus cuniculus [11] = test: Antiglaucoma activity in hypertonic saline-induced New Zealand white rabbit transient ocular hypertensive model assessed as IOP lowering efficacy at 30 uL administered topically immediately after hypertonic saline injection measured at 240 mins post dose; assay type: functional
Oryctolagus cuniculus [12] = test: Antiglaucoma activity in hypertonic saline-induced New Zealand white rabbit transient ocular hypertensive model assessed as IOP lowering efficacy at 30 uL administered topically immediately after hypertonic saline injection measured at 30 mins post dose; assay type: functional
Oryctolagus cuniculus [13] = test: Antiglaucoma activity in hypertonic saline-induced New Zealand white rabbit transient ocular hypertensive model assessed as IOP lowering efficacy at 0.5% administered topically immediately after hypertonic saline injection measured at 60 mins post dose; assay type: functional
Oryctolagus cuniculus [14] = test: Antiglaucoma activity in hypertonic saline-induced New Zealand white rabbit transient ocular hypertensive model assessed as IOP lowering efficacy at 0.5% administered topically immediately after hypertonic saline injection measured at 120 mins post dose; assay type: functional

Work on `CC(C)N(Cc1no[n+]([O-])c1C(N)=O)C(C)C` yielded an Activity [1] of 0%, an Activity [2] of 1.2% and an Activity [3] of 11.6%. For the same compound, the solubility at 1 h [4] was less than 0.5 mg/mL, the solubility [5] was “Insoluble” and the pKa [6] was 6.62. It also gave a logD at 20 min [7] of 1.4 and an Activity [8] of 14.2%.
`CCOC(=O)/N=c1\c[n+](N2CCOCC2)[n-]o1` gave an Activity (Oryctolagus cuniculus [9]) of -8.17 mmHg and an Activity (Oryctolagus cuniculus [10]) of -7.83 mmHg.
`CN(C)CCCN(C)Cc1no[n+]([O-])c1C#N.O=C(O)C(F)(F)F` gave an Activity [1] of 0%, an Activity [2] of 13.5% and an Activity [3] of 40.1%. The solubility at 1 h [4] was greater than 30 mg/mL, the solubility [5] was “Soluble” and the pKa [6] was 3.34 to 9.3. The logD at 20 min [7] was -0.73 and the Activity [8] was 98.8%.
With `CC(C)N(Cc1no[n+]([O-])c1C#N)C(C)C.CS(=O)(=O)O` the Activity [1] was 0%, the Activity [2] was 16.5% and the Activity [3] was 41.9%. For the same compound, the solubility at 1 h [4] was greater than 30 mg/mL, the solubility [5] was “Soluble” and the pKa [6] was 5.35. For the same compound, the logD at 20 min [7] was 2.35 and the Activity [8] was 0.9%.
`NC(=O)c1c(CO)no[n+]1[O-]` showed an Activity [1] of 0%, an Activity [2] of 1.8% and an Activity [3] of 12%. For the same compound, the solubility at 1 h [4] was greater than 30 mg/mL, the solubility [5] was “Soluble” and the logD at 20 min [7] was -1.48. The Activity (Oryctolagus cuniculus [9]) was -2.9 mmHg and the Activity (Oryctolagus cuniculus [10]) was -4.8 mmHg.
`N#Cc1c(CN2CCN(c3ncccn3)CC2)no[n+]1[O-]` showed an Activity [1] of 0%, an Activity [2] of 14.4% and an Activity [3] of 41.5%. The solubility at 1 h [4] was less than 0.5 mg/mL, the solubility [5] was “Insoluble” and the pKa [6] was 2 to 5.38. It also gave a logD at 20 min [7] of 0.97 and an Activity [8] of 0.9%.
Compound `Cc1c(OCCN)no[n+]1[O-].O=C(O)C(=O)O` has an Activity [1] of 0%, an Activity [2] of 0% and an Activity [3] of less than 1%. For the same compound, the solubility at 1 h [4] was greater than 30 mg/mL, the solubility [5] was “Soluble” and the pKa [6] was 8.7. For the same compound, the logD at 20 min [7] was -1.54, the Activity (Oryctolagus cuniculus [9]) was -8.8 mmHg and the Activity (Oryctolagus cuniculus [10]) was -11.9 mmHg. The Activity [8] was 95.2%.
Work on `N#Cc1c(CN2CCNCC2)no[n+]1[O-].O=C(O)C(F)(F)F` yielded an Activity [1] of 0%, an Activity [2] of 15.4% and a solubility at 1 h [4] greater than 30 mg/mL. For the same compound, the solubility [5] was “Soluble”, the pKa [6] was 2 to 8.81 and the logD at 20 min [7] was -1.32. For the same compound, the Activity (Oryctolagus cuniculus [9]) was -10.6 mmHg, the Activity (Oryctolagus cuniculus [10]) was -11.5 mmHg and the Activity [8] was 96.3%.
Compound `CN(C)Cc1no[n+]([O-])c1C#N.O=C(O)C(=O)O` has an Activity [1] of 0%, an Activity [2] of 16.1% and an Activity [3] of 43.9%. For the same compound, the solubility at 1 h [4] was greater than 30 mg/mL, the solubility [5] was “Soluble” and the pKa [6] was 5.82. For the same compound, the logD at 20 min [7] was 0.87, the Activity (Oryctolagus cuniculus [9]) was -11.2 mmHg and the Activity (Oryctolagus cuniculus [10]) was -14.4 mmHg. The Activity (Oryctolagus cuniculus [11]) was -8.6 mmHg and the Activity [8] was 2.6%.
`Cc1c(OCCN(C)C)no[n+]1[O-].O=C(O)C(=O)O` gave an Activity [1] of 0%, an Activity [2] of 0% and an Activity [3] of less than 1%. For the same compound, the solubility at 1 h [4] was greater than 30 mg/mL, the solubility [5] was “Soluble” and the pKa [6] was 7.9. The logD at 20 min [7] was -0.28, the Activity (Oryctolagus cuniculus [9]) was -9 mmHg and the Activity (Oryctolagus cuniculus [10]) was -14 mmHg. The Activity [8] was 76%.
`N#Cc1c(CN2CCC(Br)CC2)no[n+]1[O-].O=C(O)C(=O)O` gave an Activity [1] of 0%, an Activity [2] of 15.9% and an Activity [3] of 40.5%. For the same compound, the solubility at 1 h [4] was less than 0.5 mg/mL, the solubility [5] was “Insoluble” and the pKa [6] was 4.01. It also gave a logD at 20 min [7] of 2.31 and an Activity [8] of less than 0.1%.
With `CCCN(CCC)Cc1no[n+]([O-])c1C#N.O=C(O)C(=O)O` the Activity [1] was 0%, the Activity [2] was 18.1% and the Activity [3] was 42.3%. For the same compound, the solubility at 1 h [4] was 2 mg/mL, the solubility [5] was “Soluble” and the pKa [6] was 5.46. It also gave a logD at 20 min [7] of 2.74, an Activity (Oryctolagus cuniculus [9]) of -2.8 mmHg and an Activity (Oryctolagus cuniculus [10]) of -5.3 mmHg. It also gave an Activity (Oryctolagus cuniculus [12]) of -8.5 mmHg and an Activity [8] of 1.1%.
Work on `CCN(C)Cc1no[n+]([O-])c1C#N.O=C(O)C(=O)O` yielded an Activity [1] of 0%, an Activity [2] of 17.5% and an Activity [3] of 40.9%. For the same compound, the solubility at 1 h [4] was greater than 30 mg/mL, the solubility [5] was “Soluble” and the pKa [6] was 5.79. For the same compound, the logD at 20 min [7] was 1.31 and the Activity [8] was 2.4%.
Work on `CCN(CC)Cc1no[n+]([O-])c1C#N.O=C(O)C(=O)O` yielded an Activity [1] of 0%, an Activity [2] of 15.5% and an Activity [3] of 41.3%. The solubility at 1 h [4] was greater than 30 mg/mL, the solubility [5] was “Soluble” and the pKa [6] was 5.8. The logD at 20 min [7] was 1.98, the Activity (Oryctolagus cuniculus [9]) was -4.8 mmHg and the Activity (Oryctolagus cuniculus [10]) was -8.9 mmHg. It also gave an Activity [8] of 2.5%.
With `CN(C)Cc1no[n+]([O-])c1C(N)=O` the Activity [1] was 0%, the Activity [2] was 1.4% and the Activity [3] was 12.8%. For the same compound, the solubility at 1 h [4] was greater than 30 mg/mL, the solubility [5] was “Soluble” and the pKa [6] was 6.57. The logD at 20 min [7] was -0.03, the Activity (Oryctolagus cuniculus [9]) was -8.6 mmHg and the Activity (Oryctolagus cuniculus [10]) was -12 mmHg. For the same compound, the Activity [8] was 12.9%.
In the case of `CC(C)(C)NC[C@H](O)COc1nsnc1N1CCOCC1` [TIMOLOL], the Activity (Oryctolagus cuniculus [13]) is reported as -7.17 mmHg and the Activity (Oryctolagus cuniculus [14]) is reported as -7.33 mmHg.
`CCN(Cc1ccccc1)Cc1no[n+]([O-])c1C#N.O=C(O)C(=O)O` gave an Activity [1] of 0%, an Activity [2] of 16.4% and an Activity [3] of 41.7%. The solubility at 1 h [4] was less than 0.5 mg/mL, the solubility [5] was “Insoluble” and the pKa [6] was 5.58. For the same compound, the logD at 20 min [7] was 2.62 and the Activity [8] was 1.5%.
